Assay results reported in ChEMBL document CHEMBL1201862, “PubChem BioAssay data set” (2004).
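96-well plates; 48 h exposure; 5 concentrations. Endpoints by linear interpolation between flanking doses. Not reached: highest tested concentration assigned. At the GI50, growth is halved.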 The source made the active and inactive calls. No stated cut-off is given here; in the data, active = GI50 up to about 1.1 µM and inactive = higher.

Key:
Test in all cases: NCI-60 cell line screen, 48 h
[1] = tested on: M19-MEL
[2] = tested on: NCI-H226
[3] = tested on: SF-539
[4] = tested on: SW-620
[5] = tested on: TK-10
[6] = tested on: SN12C
[7] = tested on: HCC 2998
[8] = tested on: OVCAR-8
[9] = tested on: SK-MEL-2
[10] = tested on: U-251
[11] = tested on: SF-268
[12] = tested on: SK-MEL-28
[13] = tested on: SR
[14] = tested on: HOP-92
[15] = tested on: OVCAR-5

Measured: GI50

O=C1NC(=S)NC(=O)C1=Cc1ccc2ccccc2n1
inactive: [1] > 100 µM | [2] > 100 µM | [3] > 100 µM | [4] > 100 µM | [5] > 100 µM | [6] > 100 µM | [7] > 100 µM | [8] > 100 µM | [9] > 100 µM | [10] > 100 µM | [11] > 100 µM | [12] > 100 µM | [13] > 100 µM | [14] > 100 µM | [15] > 100 µM

CC(/C=C/NNC1=NN=C(c2ccccc2)C(c2ccccc2)N1)Sc1ccccc1N (stereo not given)
inactive: [1] 9.2 µM | [2] 10.9 µM | [3] 8.24 µM | [4] 2.75 µM | [5] 14.2 µM | [6] 5.79 µM | [7] 15.7 µM | [8] 4.36 µM | [9] 7.29 µM | [10] 2.34 µM | [11] 4.53 µM | [12] 8.93 µM | [13] 2.99 µM | [14] 8.39 µM | [15] 17.5 µM

C1CN(P2(N3CC3)=NP(N3CC3)(N3CC3)=NP(N3CC3)(N3CC3)=N2)CCO1 (stereo not given) [FOTRETAMINE]
inactive: [1] > 100 µM | [2] > 85.5 µM | [3] 44.8 µM | [4] > 100 µM | [5] > 100 µM | [6] > 68.2 µM | [7] > 100 µM | [8] > 100 µM | [9] > 100 µM | [10] 71.6 µM | [11] 47.3 µM | [12] > 100 µM | [13] 2.47 µM | [14] > 100 µM | [15] > 100 µM
